Experimental data from ChEMBL document CHEMBL5725763, “Factor XIa inhibitors” (2018).

Molecular target: Coagulation factor XI (Homo sapiens, UniProt P03951)
Experiment: Factor XIa Assay: The effectiveness of a compound of the present invention as an inhibitor of Coagulation Factor XIa can be determined using a relevant purified serine protease, and an appropriate synthetic substrate. The rate of hydrolysis of the chromogenic or fluorogenic substrate by the relevant serine protease was measured both in the absence and presence of compounds of the present invention. Assays were conducted at room temperature or at 37° C. […] A decrease in the rate of fluorescence change in the presence of inhibitor is indicative of enzyme inhibition. Such methods are known to one skilled in the art. […] Times required to achieve equilibration between enzyme and inhibitor were determined in control experiments. Initial velocities of product formation in the absence (Vo) or presence of inhibitor (Vi) were measured. Assuming competitive inhibition, and that unity is negligible compared Km/[S], [I]/e, and [I]/e (where [S], [I], and e respectively represent the total concentrations, of substrate, inhibitor and enzyme), the equilibrium constant (Ki) for dissociation of the inhibitor from the enzyme can be obtained from the dependence of Vo/Vi on [I] shown in the following equation. V o /V i=1+[I]/K iThe activities shown by this assay indicate that the compounds of the invention may be therapeutically useful for treating or preventing various cardiovascular and/or cerebrovascular thromboembolic conditions in patients suffering from unstable angina, acute coronary syndrome, refractory angina, myocardial infarction, transient ischemic attacks, atrial fibrillation, stroke such as thrombotic stroke or embolic stroke, venous thrombosis, coronary and cerebral arterial thrombosis, cerebral and pulmonary embolism, atherosclerosis, deep vein thrombosis, disseminated intravascular coagulation, and reocclusion or restenosis of recanalized vessels.

Coagulation factor XI, sequence (P03951 19-387 limits assumed): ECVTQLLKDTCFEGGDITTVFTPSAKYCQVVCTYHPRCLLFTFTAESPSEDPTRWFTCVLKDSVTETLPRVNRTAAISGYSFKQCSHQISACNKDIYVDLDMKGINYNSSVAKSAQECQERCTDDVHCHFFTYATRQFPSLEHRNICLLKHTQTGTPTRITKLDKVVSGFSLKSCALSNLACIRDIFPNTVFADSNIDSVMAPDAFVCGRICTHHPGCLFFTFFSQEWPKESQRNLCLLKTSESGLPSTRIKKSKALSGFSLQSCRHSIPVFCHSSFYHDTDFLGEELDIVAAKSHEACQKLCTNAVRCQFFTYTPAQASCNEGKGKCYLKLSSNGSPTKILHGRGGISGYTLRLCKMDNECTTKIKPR
Coagulation factor XI, sequence (P03951 388-625 limits assumed): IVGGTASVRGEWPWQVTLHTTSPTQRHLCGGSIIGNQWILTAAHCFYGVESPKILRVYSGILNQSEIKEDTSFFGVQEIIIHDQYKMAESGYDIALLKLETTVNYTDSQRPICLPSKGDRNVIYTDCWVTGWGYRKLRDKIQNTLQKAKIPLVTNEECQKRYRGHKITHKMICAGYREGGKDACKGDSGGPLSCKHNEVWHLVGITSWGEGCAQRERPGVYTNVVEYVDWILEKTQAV

How did the Ki turn out when `COC(=O)Nc1ccc2c(N[C@@H](Cc3ccccc3)C(=O)N3CCC[C@@]4(C3)OC(=O)Nc3ccc(Cl)cc34)nn(C)c2c1` was run?
The Ki was 8.2 µM.

How did the Ki turn out when `COC(=O)Nc1ccc2c(N[C@@H](Cc3ccccc3)C(=O)N3CCC[C@@]4(C3)OC(=O)Nc3ccc(Cl)cc34)noc2c1` was run?
The Ki was 0.523 µM.

Which Ki does the source give for `Nc1ccc(-c2c[nH]c(C(Cc3ccccc3)C(=O)N3CCC[C@@]4(C3)OC(=O)Nc3ccc(Cl)c(F)c34)n2)cn1` (some centres undefined) here?
The Ki was 0.353 µM.

For `CC(=O)Nc1ccc(N[C@@H](Cc2ccccc2)C(=O)N2CCC[C@@]3(C2)OC(=O)Nc2ccc(Cl)cc23)cc1`, which Ki is on record?
Its Ki is 10 µM.
